IC50 data for 20 compounds are collected here from patent US7943770B2, “Fused quinoline derivative and use thereof” (Takeda Pharmaceutical Company Limited, priority 2004, dated 2011).

In general, IC50 refers to the concentration that gives 50% inhibition. A lower IC50 goes with higher potency.

The target in this assay is T1, hNK2 receptor (Homo sapiens, UniProt P21452).
T1 construct: host or cells: CHO cells
T1 sequence (P21452 1-398): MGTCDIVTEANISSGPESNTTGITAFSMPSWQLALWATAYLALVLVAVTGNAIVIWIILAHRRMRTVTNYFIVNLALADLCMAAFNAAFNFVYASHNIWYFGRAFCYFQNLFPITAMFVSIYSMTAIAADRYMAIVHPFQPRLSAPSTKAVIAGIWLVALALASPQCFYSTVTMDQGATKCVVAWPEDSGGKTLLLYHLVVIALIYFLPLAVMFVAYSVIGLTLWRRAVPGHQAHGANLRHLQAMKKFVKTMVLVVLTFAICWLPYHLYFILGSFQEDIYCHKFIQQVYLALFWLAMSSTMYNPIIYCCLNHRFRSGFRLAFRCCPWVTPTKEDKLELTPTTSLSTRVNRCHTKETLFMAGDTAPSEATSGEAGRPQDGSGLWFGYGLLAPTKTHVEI
Kind of assay: Radio-ligand ([125I]-NKA) receptor binding inhibitory activity using membrane fraction of hNK2 receptor-expressing CHO cell. The note with it: membrane fraction of hNK2 receptor-expressing CHO cells, 25° C., 30 min. How it is done:
hNK2 receptor-expressing CHO cells (produced by EUROSCREEN) were cultured in HAM-F12 medium containing 400 μg/ml Geneticin, 100 U/mL penicillin, 100 μg/mL streptomycin and 10% inactivated serum. The medium was removed and adhered cells were washed with PBS, and PBS containing 5 mM EDTA was added to detach the cells from the flask. The cells were recovered by centrifugation, suspended in suspending buffer A (15 mM Tris-HCl (pH 7.5), 2 mM MgCl2, 0.3 mM EDTA, 1 mM EGTA), disrupted by POLYTRON homogenizer (manufactured by KINEMATICA) and centrifuged at 800×g for 10 min. The supernatant was recovered and ultracentrifuged at 100000×g for 25 min. The precipitated fraction was suspended in suspending buffer B (7.5 mM Tris-HCl (pH 7.5), 12.5 mM MgCl2, 0.3 mM EDTA, 1 mM, […], 250 mM Sucrose) and cryopreserved (at −80° C.) as a receptor specimen.
An assay buffer (50 μl, 50 mM Tris-HCl (pH 7.4), 0.02% bovine serum albumin, 2 μg/mL chymostatin, 40 μg/mL bacitracin, 40 μg/mL APMSF, 3 mM MnCl2) was added to a 96 well microassay plate. Thereto was added a 20 μg/mL membrane specimen suspended in the assay buffer (50 μL). An assay buffer (50 μL) containing 2% dimethyl sulfoxide was added to examine the total binding, 4 unlabeled NKA (produced by Peptide Institute, Inc.) solution (50 μL) diluted with an assay buffer containing 2% dimethyl sulfoxide was added to examine non-specific binding, and a test compound diluted with an assay buffer (50 containing 2% dimethyl sulfoxide) was added to examine the binding inhibitory activity of the test compound. Furthermore, […] [^125I]-NKA (produced by Amersham Biosciences) solution (50 μL) was added to each well.
After reaction at 25° C. for 30 min., the reaction was stopped by rapid filtration on a unifilter plate (GF/C) (manufactured by PerkinElmer) using a cell harvester (manufactured by PerkinElmer) and the cells were washed 5 times with 50 mM Tris-HCl (pH 7.4) buffer containing 0.02% bovine serum albumin (250 μL). The GF/C filter plate was dried and 20 μl, of MicroScinti-O (manufactured by PerkinElmer) was added and the radioactivity was measured in Topcount (manufactured by PerkinElmer). The GF/C filter plate, which had been immersed in 0.3% polyethyleneimine for one day, was used. Specific binding is shown by the value obtained by subtracting non-specific binding from the total binding. The binding inhibitory activity of the test compound is shown by the ratio of the value obtained by subtracting the measured value associated with the addition of the test compound from the total binding, to the value of the specific binding.
`O=C(N[C@@H]1CCCC[C@@H]1C(=O)N1CC[C@@H]2[C@H](c3ncc[nH]3)Nc3ccccc3[C@@H]21)c1ccccc1` (relative stereo) [Example 54, N-((1R,2S)-2-{[(3aR*,4R*,9bR*)-4-(1H-Imidazol-2-yl)-2,3,3a,4,5,9b-hexahydro-1H-pyrrolo[3,2-c]quinolin-1-yl]carbonyl}cyclohexyl)benzamide] came in with a half-maximal inhibitory concentration (IC50) of under 1 nM.

With `O=C(N[C@@H]1CCCC[C@@H]1C(=O)N1CC[C@@H]2[C@H](c3ccn[nH]3)Nc3ccccc3[C@@H]21)c1ccccc1` (relative stereo) [Example 56, N-((1R,2S)-2-{[(3aR*,4R*,9bR*)-4-(1H-Pyrazol-5-yl]-2,3,3a,4,5,9b-hexahydro-1H-pyrrolo[3,2-c]quinolin-1-yl]carbonyl}cyclohexyl)benzamide], the IC50 is under 10 nM.

In the case of `O=C(NC1(CC(=O)N2CC[C@@H]3[C@H](c4ccccc4)Nc4ccccc4[C@@H]32)CCCCC1)c1ccccc1` (relative stereo) [Example 312, N-(1-{2-oxo-2-[(3aR*,4R*,9bR*)-4-phenyl-2,3,3a,4,5,9b-hexahydro-1H-pyrrolo[3,2-c]quinolin-1-yl]ethyl}cyclohexyl)benzamide], the IC50 was under 10 nM.

With `O=C(N[C@@H]1CCCC[C@@H]1C(=O)N1CC[C@@H]2C(C3CCOCC3)Nc3ccccc3[C@@H]21)c1ccccc1` (stereo in doubt) [Example 79, N-((1R,2S)-2-{[(3aR,4R,9bR)-4-Tetrahydro-2H-pyran-4-yl-2,3,3a,4,5,9b-hexahydro-1H-pyrrolo[3,2-c]quinolin-1-yl]carbonyl}cyclohexyl)benzamide], the IC50 is under 10 nM.

For `O=C(N[C@@H]1CCCC[C@@H]1C(=O)N1CC[C@@H]2[C@H](c3ccccc3)Nc3ccccc3[C@@H]21)c1ccccc1` [Example 58, N-{(1R,2S)-2-[((3aR,4R,9bR)-4-Phenyl-2,3,3a,4,5,9b-hexahydro-1H-pyrrolo[3,2-c]quinolin-1-yl)carbonyl]cyclohexyl}benzamide], the half-maximal inhibitory concentration (IC50) is under 10 nM.

Compound `O=C(N[C@@H]1CCCC[C@@H]1C(=O)N1CC[C@@H]2[C@H](C3CC3)Nc3ccccc3[C@@H]21)c1ccccc1` [Example 59, N-((1R,2S)-2-[(3aR,4S,9bR)-(4-Cyclopropyl-2,3,3a,4,5,9b-hexahydro-1H-pyrrolo[3,2-c]quinolin-1-yl)carbonyl]cyclohexyl)benzamide] came in with a half-inhibitory concentration (IC50) of under 10 nM.

`O=C(N[C@@H]1CCCC[C@@H]1C(=O)N1CC[C@@H]2[C@H](c3ccsc3)Nc3ccccc3[C@@H]21)c1ccccc1` [Example 60, N-((1R,2S)-2-{[(3aR,4R,9bR)-4-(3-Thienyl)-2,3,3a,4,5,9b-hexahydro-1H-pyrrolo[3,2-c]quinolin-1-yl]carbonyl}cyclohexyl)benzamide]: the IC50 was under 1 nM.

Take `O=C(N[C@@H]1CCCC[C@@H]1C(=O)N1CC[C@@H]2[C@H](c3ccccc3)Nc3ccc(F)cc3[C@@H]21)c1ccccc1` [Example 61, N-((1R,2S)-2-{[(3aR,4R,9bR)-8-Fluoro-4-phenyl-2,3,3a,4,5,9b-hexahydro-1H-pyrrolo[3,2-c]quinolin-1-yl]carbonyl}cyclohexyl)benzamide]: the IC50 is under 10 nM.

As for `CCC[C@@H]1Nc2ccccc2[C@H]2[C@@H]1CCN2C(=O)[C@H]1CCCC[C@H]1NC(=O)c1ccccc1` [Example 62, N-{(1R,2S)-2-[(3aR,4S,9bR)-(4-Propyl-2,3,3a,4,5,9b-hexahydro-1H-pyrrolo[3,2-c]quinolin-1-yl)carbonyl]cyclohexyl}benzamide], the IC50 was under 1 nM.

`O=C(N[C@@H]1CCCC[C@@H]1C(=O)N1CC[C@@H]2[C@H](c3ccoc3)Nc3ccccc3[C@@H]21)c1ccccc1` [Example 63, N-((1R,2S)-2-{[(3aR,4R,9bR)-4-(3-Furyl)-2,3,3a,4,5,9b-hexahydro-1H-pyrrolo[3,2-c]quinolin-1-yl]carbonyl}cyclohexyl)benzamide] came in with a half-inhibitory concentration (IC50) of under 1 nM.

`O=C(N[C@@H]1CCCC[C@@H]1C(=O)N1CC[C@@H]2[C@H](c3ccc[nH]3)Nc3ccccc3[C@@H]21)c1ccccc1` [Example 64, N-((1R,2S)-2-{[(3aR,4R,9bR)-4-(1H-Pyrrol-2-yl)-2,3,3a,4,5,9b-hexahydro-1H-pyrrolo[3,2-c]quinolin-1-yl]carbonyl}cyclohexyl)benzamide] had an IC50 of under 1 nM.

For the compound `CC(C)C[C@@H]1Nc2ccccc2[C@H]2[C@@H]1CCN2C(=O)[C@H]1CCCC[C@H]1NC(=O)c1ccccc1` [Example 66, N-((1R,2S)-2-{[(3aR,4S,9bR)-4-Isobutyl-2,3,3a,4,5,9b-hexahydro-1H-pyrrolo[3,2-c]quinolin-1-yl]carbonyl}cyclohexyl)benzamide], the IC50 is under 10 nM.

`O=C(NCC[C@@H]1Nc2ccccc2[C@H]2[C@@H]1CCN2C(=O)[C@H]1CCCC[C@H]1NC(=O)c1ccccc1)OCc1ccccc1` [Example 68, Benzyl 2-((3aR,4S,9bR)-1-{[(1S,2R)-2-(benzoylamino)cyclohexyl]carbonyl}-2,3,3a,4,5,9b-hexahydro-1H-pyrrolo[3,2-c]quinolin-4-yl)ethylcarbate] gave an IC50 of under 10 nM.

In the case of `Cc1occc1[C@@H]1Nc2ccccc2[C@H]2[C@@H]1CCN2C(=O)[C@H]1CCCC[C@H]1NC(=O)c1ccccc1` [Example 75, N-((1R,2S)-2-{[(3aR,4R,9bR)-4-(2-Methyl-3-furyl)-2,3,3a,4,5,9b-hexahydro-1H-pyrrolo[3,2-c]quinolin-1-yl]carbonyl}cyclohexyl)benzamide], the IC50 was under 10 nM.

As for `O=C(N[C@@H]1CCCC[C@@H]1C(=O)N1CC[C@@H]2[C@H](c3cocn3)Nc3ccccc3[C@@H]21)c1ccccc1` [Example 76, N-((1R,2S)-2-{[(3aR,4R,9bR)-4-(1,3-Oxazol-4-yl)-2,3,3a,4,5,9b-hexahydro-1H-pyrrolo[3,2-c]quinolin-1-yl]carbonyl}cyclohexyl)benzamide], the half-maximal inhibitory concentration (IC50) was under 10 nM.

`O=C(N[C@@H]1CCCC[C@@H]1C(=O)N1CC[C@@H]2[C@H](c3cncs3)Nc3ccccc3[C@@H]21)c1ccccc1` [Example 78, N-((1R,2S)-2-{[(3aR,4R,9bR)-4-(1,3-Thiazol-5-yl)-2,3,3a,4,5,9b-hexahydro-1H-pyrrolo[3,2-c]quinolin-1-yl]carbonyl}cyclohexyl)benzamide] came in with an IC50 of under 10 nM.

`O=C(N[C@@H]1CCCC[C@@H]1C(=O)N1CC[C@@H]2[C@H](c3ncc[nH]3)Nc3ccccc3[C@@H]21)c1ccccc1` [Example 81, N-((1R,2S)-2-{[(3aR,4R,9bR)-4-(1H-imidazol-2-yl)-2,3,3a,4,5,9b-hexahydro-1H-pyrrolo[3,2-c]quinolin-1-yl]carbonyl}cyclohexyl)benzamide] yielded a half-inhibitory concentration (IC50) of under 1 nM.

`Cn1ccnc1[C@@H]1Nc2ccccc2[C@H]2[C@@H]1CCN2C(=O)[C@H]1CCCC[C@H]1NC(=O)c1ccccc1` [Example 82, N-((1R,2S)-2-{[(3aR,4R,9bR)-4-(1-Methyl-1H-imidazol-2-yl)-2,3,3a,4,5,9b-hexahydro-1H-pyrrolo[3,2-c]quinolin-1-yl]carbonyl}cyclohexyl)benzamide] had a half-inhibitory concentration (IC50) of under 10 nM.

In turn, `C[C@]12CCN(C(=O)[C@H]3CCCC[C@H]3NC(=O)c3ccccc3)[C@H]1c1ccccc1N[C@H]2c1ccccc1` [Example 83, N-((1R,2S)-2-{[(3aR,4S,9bR)-3a-Methyl-4-phenyl-2,3,3a,4,5,9b-hexahydro-1H-pyrrolo[3,2-c]quinolin-1-yl]carbonyl}cyclohexyl)benzamide] showed an IC50 of under 10 nM.

For the compound `CC(=O)N[C@@H]1CCCC[C@@H]1C(=O)N1CC[C@@H]2[C@H](c3ccccc3)Nc3ccccc3[C@@H]21` [Example 85, N-((1R,25)-2-{[(3aR,4R,9bR)-4-Phenyl-2,3,3a,4,5,9b-hexahydro-1H-pyrrolo[3,2-c]quinolin-1-yl]carbonyl}cyclohexyl)acetamide], the 50% inhibitory concentration (IC50) was under 10 nM.
